Measured values published in article PMC7822819, “Discovery of a new class of integrin antibodies for fibrosis” (Scientific Reports, 2021).
Read-outs that look alike come from different tables or passages of the source.

Assays:
human αvβ3 = target: T1, human αvβ3 (Homo sapiens, UniProt P05106+P06756); assay: AlphaLISA integrin-ligand binding assay; format: biochemical
T1 construct: hαV 1 992; hβ3 1 718; made in house; host or cells: Expi293
Description: (§1) In the AlphaLISA integrin assays, we used a HEPES based buffer (25 mM HEPES pH 7.4, 137 mM NaCl, 1 mM MgCl2, 1 mM MnCl2, 2 mM CaCl2, 2.7 mM KCl, and 0.05% Tween-20). Optimal assay conditions were determined with a titration of the reagents for signal noise ratio (S/N), linear range, etc. For the respective integrins, we used the final concentrations described in Supplemental Table S3. Briefly, the testing antibody (8 μL) was added as a 4x (of Final testing concentration) solution in the HEPES buffer described previously into a 384w AlphaPlate (Perkin Elmer #6005350). Then the integrin and ligand were added sequentially as 8x (4 μL each). Plates were sealed and incubated at room temperature for 2 h. Then 4 × acceptor bead solution (8 μL) was added, and the plates were resealed and incubated at RT for 1 h. Finally, 4 × (8 μL) donor beads solution was added in a darkened room and incubated for 45 min at room temperature. Plates were read on the Envision (Perkin Elmer) in AlphaScreen mode within 3 h of donor bead addition.
(§2) Supplemental Table S3. integrin AlphaLIS A assay reagents and conditions Human A l phal i sa Inte gri n A ssays: Fi nal Condi ti ons […]
(§3) ( batch de pe nde nt) anti body A l phaLi sa A cce ptor havb1 1. 4 nM 1. 0 nMα - Fi brone cti n human Fi brone cti n n/a A cce ptor be ads/ Pe rki n 10. 0 ug/ m 10. 0 ug/ m […]
(§4) havb3 3. 0 nM 10. 0 nMhuman V i trone cti n- GST α - GS T A cce p t o r ug/ m Stre ptavi di n Donor ug/ m tagge d n/a be ads/ Pe rki n 15. 0 l be ads/ Pe rki n El me r 15. 0 l […]
(§5) havb6 0. 1 nM 0. 5 nM 3. […]
(§6) Mouse A l phal i sa Inte gri n A ssays: Fi nal Condi ti ons […]
(§7) m aV b 1 4. 3 nM 1. 0 nMmouse f i brone cti n A bcam α - Fi brone cti n ( Rabbi t […]
(§8) 0 nM 5. […] 0nM be ads/ Pe rki n El me r […]
(§9) m aV b 6 1. 4 nM 2. 5 nMmouse LA P- 6Hi s α - 6x HI S / P e rk i n El m e r ug/ m ug/ m m aV b 8 1. 0 nM 2. 5 nMChe mpartne rn/a( A L 128) 15 l 15 l

mouse αvβ8 = target: T2, mouse αvβ8 (Mus musculus, UniProt P43406+Q0VBD0); assay: AlphaLISA integrin-ligand binding assay; format: biochemical; conditions: Fig. 4B; read-out: IC50 Mouse integrin AlphaLISA assays: mαvβ8
T2 construct: mαV 1 988; m β8 1 679; made in house; host or cells: Expi293
T2 sequence (P43406 31-988): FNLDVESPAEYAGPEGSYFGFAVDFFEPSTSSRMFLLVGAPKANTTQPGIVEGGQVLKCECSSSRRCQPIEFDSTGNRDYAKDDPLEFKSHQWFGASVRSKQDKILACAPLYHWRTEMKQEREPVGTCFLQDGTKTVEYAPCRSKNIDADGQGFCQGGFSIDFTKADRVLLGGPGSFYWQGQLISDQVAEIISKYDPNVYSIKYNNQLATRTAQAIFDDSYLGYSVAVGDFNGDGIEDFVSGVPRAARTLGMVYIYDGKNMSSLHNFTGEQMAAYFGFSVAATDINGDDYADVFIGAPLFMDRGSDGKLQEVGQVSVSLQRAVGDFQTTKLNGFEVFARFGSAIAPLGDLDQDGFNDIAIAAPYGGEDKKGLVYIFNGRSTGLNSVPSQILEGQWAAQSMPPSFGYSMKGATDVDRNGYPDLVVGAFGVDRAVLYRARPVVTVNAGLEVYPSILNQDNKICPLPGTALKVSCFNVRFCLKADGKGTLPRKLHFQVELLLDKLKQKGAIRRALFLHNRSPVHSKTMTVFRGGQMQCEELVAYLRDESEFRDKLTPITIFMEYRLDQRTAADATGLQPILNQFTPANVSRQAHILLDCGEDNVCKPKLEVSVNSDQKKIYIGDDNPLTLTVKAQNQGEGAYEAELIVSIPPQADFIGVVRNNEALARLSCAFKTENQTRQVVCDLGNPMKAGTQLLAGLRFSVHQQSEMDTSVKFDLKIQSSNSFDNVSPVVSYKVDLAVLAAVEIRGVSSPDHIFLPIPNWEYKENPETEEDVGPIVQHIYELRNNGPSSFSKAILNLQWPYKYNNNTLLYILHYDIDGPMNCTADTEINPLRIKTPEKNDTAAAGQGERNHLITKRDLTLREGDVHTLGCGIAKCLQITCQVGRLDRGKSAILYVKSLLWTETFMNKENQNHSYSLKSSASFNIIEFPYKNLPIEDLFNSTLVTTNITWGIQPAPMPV
T2 sequence (Q0VBD0 22-679): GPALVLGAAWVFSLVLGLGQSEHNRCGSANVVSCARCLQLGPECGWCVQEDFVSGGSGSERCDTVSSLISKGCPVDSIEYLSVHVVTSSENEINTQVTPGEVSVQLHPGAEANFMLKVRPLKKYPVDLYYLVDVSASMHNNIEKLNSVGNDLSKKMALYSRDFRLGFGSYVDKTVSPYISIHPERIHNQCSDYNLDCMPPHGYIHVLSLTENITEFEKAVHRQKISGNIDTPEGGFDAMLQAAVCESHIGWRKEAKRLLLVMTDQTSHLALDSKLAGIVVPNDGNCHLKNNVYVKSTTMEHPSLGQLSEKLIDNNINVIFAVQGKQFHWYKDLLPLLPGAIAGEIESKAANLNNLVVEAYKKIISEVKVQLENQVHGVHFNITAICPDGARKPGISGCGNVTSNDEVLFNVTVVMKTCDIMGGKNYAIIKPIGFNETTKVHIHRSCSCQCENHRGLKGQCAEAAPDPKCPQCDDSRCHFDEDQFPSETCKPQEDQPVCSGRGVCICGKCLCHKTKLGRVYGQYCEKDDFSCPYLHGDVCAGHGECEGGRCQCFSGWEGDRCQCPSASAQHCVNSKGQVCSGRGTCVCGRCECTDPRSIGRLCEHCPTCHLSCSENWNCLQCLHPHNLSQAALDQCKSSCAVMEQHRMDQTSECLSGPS
Description: as §1, §2, §3, §4, §5, §6, §7, §8, §9

human αvβ5 = target: T3, human αvβ5 (Homo sapiens, UniProt P06756+P18084); assay: AlphaLISA integrin-ligand binding assay; format: biochemical
T3 construct: hαV 1 992; hβ5 1 719; made in house; host or cells: Expi293
T3 sequence (P06756 31-992): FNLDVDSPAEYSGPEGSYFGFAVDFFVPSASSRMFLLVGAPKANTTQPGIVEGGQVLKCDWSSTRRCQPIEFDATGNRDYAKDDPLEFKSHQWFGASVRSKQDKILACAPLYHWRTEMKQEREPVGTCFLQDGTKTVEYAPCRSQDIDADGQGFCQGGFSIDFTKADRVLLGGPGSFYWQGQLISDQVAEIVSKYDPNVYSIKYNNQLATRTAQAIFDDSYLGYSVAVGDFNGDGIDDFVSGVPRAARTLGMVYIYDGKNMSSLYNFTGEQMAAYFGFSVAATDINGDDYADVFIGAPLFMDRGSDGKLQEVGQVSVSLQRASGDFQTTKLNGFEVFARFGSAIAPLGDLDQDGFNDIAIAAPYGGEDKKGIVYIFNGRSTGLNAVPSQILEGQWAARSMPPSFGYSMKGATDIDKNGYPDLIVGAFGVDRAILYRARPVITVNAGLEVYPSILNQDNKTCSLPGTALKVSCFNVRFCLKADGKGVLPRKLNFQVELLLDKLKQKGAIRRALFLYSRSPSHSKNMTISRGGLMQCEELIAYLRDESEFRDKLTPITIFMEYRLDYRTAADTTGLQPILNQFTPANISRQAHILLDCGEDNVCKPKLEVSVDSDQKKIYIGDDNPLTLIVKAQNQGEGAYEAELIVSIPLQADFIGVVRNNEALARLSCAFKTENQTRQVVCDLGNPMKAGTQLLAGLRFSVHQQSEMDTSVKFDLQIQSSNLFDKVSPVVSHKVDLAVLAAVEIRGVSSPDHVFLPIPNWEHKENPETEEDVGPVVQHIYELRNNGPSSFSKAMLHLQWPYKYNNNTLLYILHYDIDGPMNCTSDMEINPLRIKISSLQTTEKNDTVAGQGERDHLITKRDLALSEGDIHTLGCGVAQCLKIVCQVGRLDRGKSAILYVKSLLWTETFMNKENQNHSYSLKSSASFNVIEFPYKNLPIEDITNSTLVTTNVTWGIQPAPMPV
T3 sequence (P18084 24-719): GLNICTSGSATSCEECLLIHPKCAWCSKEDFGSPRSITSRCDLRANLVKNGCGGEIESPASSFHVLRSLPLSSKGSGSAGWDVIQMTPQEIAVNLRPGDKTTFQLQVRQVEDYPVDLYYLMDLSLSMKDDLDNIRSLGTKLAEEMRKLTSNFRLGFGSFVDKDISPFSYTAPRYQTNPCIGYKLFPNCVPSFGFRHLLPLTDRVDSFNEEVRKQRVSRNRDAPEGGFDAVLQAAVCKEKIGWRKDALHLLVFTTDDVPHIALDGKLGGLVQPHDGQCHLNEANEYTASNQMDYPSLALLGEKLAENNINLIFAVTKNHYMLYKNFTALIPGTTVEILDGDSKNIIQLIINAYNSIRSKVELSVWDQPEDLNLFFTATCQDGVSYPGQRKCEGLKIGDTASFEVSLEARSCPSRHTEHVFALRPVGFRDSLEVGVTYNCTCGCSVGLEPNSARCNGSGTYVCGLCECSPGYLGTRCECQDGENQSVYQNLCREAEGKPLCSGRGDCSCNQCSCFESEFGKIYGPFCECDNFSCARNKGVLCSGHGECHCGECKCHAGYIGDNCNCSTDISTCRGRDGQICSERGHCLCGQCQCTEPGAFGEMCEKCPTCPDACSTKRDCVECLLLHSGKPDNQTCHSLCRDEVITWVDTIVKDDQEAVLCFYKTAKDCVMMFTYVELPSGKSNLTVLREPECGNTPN
Description: as §1, §2, §3, §4, §5, §6, §7, §8, §9

[1] = tested on: bleomycin-induced lung fibrosis; assay: Bleomycin-induced lung fibrosis mouse model; format: in vivo; conditions: BLM mice, Nintedanib 60 mpk po qd
Description: Adult male C57BL/6 mice (Taconic, Rensselaer, NY) were housed in a temperature and humidity-controlled facility with a 12 h light: 12-h dark cycle. Animals had ad libitum access to food (Purina Rodent Chow 5053, LabDiet, St. Louis, MO) and water. All procedures utilizing experimental animals were conducted in accordance with the Guide for the Care and Use of Laboratory Animals, and experimental procedures were reviewed and approved by the Institutional Animal Care and Use Committee at MRL, Kenilworth, NJ. For osmotic minipump implantation, TFA salt of MK-0429 was formulated in 50% DMSO/50% H2O at a concentration of 416 mg/mL. MK-0429 or vehicle solution were filled in minipumps (Alzet, # 1007D, flow rate 0.5 μL/h). Minipumps were placed in mice subcutaneously in a pocket on the back between the shoulder blades. A small incision was made and a subcutaneous pocket formed by blunt dissection. A sterile minipump was inserted into the subcutaneous pocket. The incision was closed with staples or non-absorbable suture or absorbable (subcuticular) suture. The minipumps were used for continuous drug delivery for 2 weeks. Mice at 12 ~ 13 weeks of age were randomized to 5 groups: saline, bleomycin instillation with vehicle (osmotic minipump), bleomycin instillation with MK-0429 treatment, bleomycin instillation with vehicle oral treatment, and bleomycin instillation with Nintedanib treatment. All mice were anaesthetized with isoflurane. Bleomycin was dosed by intra-tracheal (i.t) instillation in a volume of 50 µl, at a dose of 1unit /kg body weight. After instillation, mice were kept in a heads-up position for 2–5 min before putting into cages. MK-0429 (200 mg/kg) was administered by Osmotic pump from day 5 to day 14 and Nintedanib (60 mg/kg) was administered, p.o., q.d., for 14 days. Vehicle was dosed orally at 10 am daily from the day 5 to the end of the studies and dosing volume was 10 mL/kg. For plasma PK analysis, an aliquot of 50 μL plasma was spiked into a 96-well plate, and 200 μL of acetonitrile containing internal standard were added for protein precipitation. The mixture was vortexed, centrifuged at 4000 rpm for 20 min. 50 μL of supernatant were mixed with 200 μl H2O and the final solution were injected for LC–MS/MS analysis. The methods for quantitative analysis were developed on UPLC (Waters) chromatographic system equipped with an API4000 QTrap mass spectrometer (Applied Biosystems, Concord, Ontario, Canada). Analyst 1.5 software packages (Applied Biosystems) were used to control the LC–MS/MS system and data acquisition and processing. Upon completion of the study, animals were euthanized and tissues were collected for histological assessment. Lung tissues were perfused with 10% formalin, fixed for 24 h, and then paraffin embedded. Tissue sections were stained with hematoxylin & eosin (H&E) and Masson’s trichrome, subsequently evaluated under light microscope. The severity of histopathologic changes and fibrosis in the lung were graded as described previously by pathologists[51],[52]. Following deparaffinization and rehydration, each lung tissue section was processed to identify αSMA deposition by immunohistochemistry. The primary antibodies used were αSMA antibody from Sigma. The Aperio ScanScope XT Slide Scanner (Aperio Technologies) system was used to capture whole slide digital images with a 20 × objective. Digital images were managed using Aperio Spectrum. The positive stains were identified and quantified using a macro created from a color deconvolution algorithm (Aperio Technologies). Statistical analysis was performed by using One-way ANOVA followed by Tukey’s test.

[2] = treatment from day 5 for 14 days, MK-0429 200 mpk osmotic minipump, vs BLM-vehicle

T1 sequence (P06756 31-992): as the sequence (P06756 31-992) above
T1 sequence (P05106 27-718): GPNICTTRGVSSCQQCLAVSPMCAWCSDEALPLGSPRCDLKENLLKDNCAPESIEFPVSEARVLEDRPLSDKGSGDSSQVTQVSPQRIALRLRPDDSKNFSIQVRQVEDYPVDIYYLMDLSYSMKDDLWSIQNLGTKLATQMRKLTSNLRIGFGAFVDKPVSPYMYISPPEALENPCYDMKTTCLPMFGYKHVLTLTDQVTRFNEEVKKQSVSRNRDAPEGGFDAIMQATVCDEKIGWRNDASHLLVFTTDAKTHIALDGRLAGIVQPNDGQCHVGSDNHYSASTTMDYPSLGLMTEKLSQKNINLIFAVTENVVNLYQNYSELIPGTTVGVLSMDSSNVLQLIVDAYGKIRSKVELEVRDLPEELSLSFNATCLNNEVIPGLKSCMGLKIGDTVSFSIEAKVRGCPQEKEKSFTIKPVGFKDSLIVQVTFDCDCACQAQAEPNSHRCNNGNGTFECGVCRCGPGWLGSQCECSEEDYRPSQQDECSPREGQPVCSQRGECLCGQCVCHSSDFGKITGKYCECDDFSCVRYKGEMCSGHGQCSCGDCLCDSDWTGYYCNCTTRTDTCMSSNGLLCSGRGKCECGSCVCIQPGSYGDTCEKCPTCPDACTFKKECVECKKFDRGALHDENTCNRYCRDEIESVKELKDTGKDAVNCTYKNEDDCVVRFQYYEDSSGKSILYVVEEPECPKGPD

`COc1ccc(C(CC(=O)O)N2CCN(CCCc3ccc4c(n3)NCCC4)C2=O)cn1` (stereo not shown) [MK-0429] showed an IC50 (human αvβ3; Fig. 3D, assay optimisation, read-out: IC50 human αvβ3 AlphaLISA) of 0.15 nM, an IC50 (human αvβ3; Fig. 4B, read-out: IC50 Human integrin AlphaLISA assays: hαvβ3) of 1.6 nM and an IC50 (mouse αvβ8) of 5.3 nM. For the same molecule, the IC50 (human αvβ5; Fig. 3D, assay optimisation, read-out: IC50 human αvβ5 AlphaLISA) was 9.9 nM, the IC50 (human αvβ5; Fig. 4B, read-out: IC50 Human integrin AlphaLISA assays: hαvβ5) was 2.9 nM and the “TIMP-1 content in BALF” value ([1]; 14 days treatment, MK-0429 200 mpk minipump) was “did not reach statistical significance”. The “Modified Ashcroft score of mouse lung” value [1, 2] was “significantly decreased”, the “Total inflammation area in mouse lungs” value [1, 2] was “nonstatistical significant decrease” and the “αSMA immunohistochemistry in lung” value [1, 2] was “significantly decreased”. The “Body weight vs bleomycin group” value ([1]; MK-0429 200 mpk minipump) was “no significant body weight difference”.
